Results taken from patent publication US9096543B2, “Nuclear transport modulators and uses thereof” (Karyopharm Therapeutics Inc., priority 2012, dated 2015).
Entries after “also recorded” stand apart in the source; their conditions may differ.

Legend:
obese Zucker rats = test: Food intake and body weight in Zucker rats; format: in vivo
Procedure: Twenty-one (21) male Zucker rats aged 7 months were allocated into 3 groups of N=7 based on equivalent body weights and food intakes. An additional group of N=7 age matched Zucker lean controls were included as a control. Body weights and food and water intakes were measured at approximately the same time each day (14:30-15:30 h). On treatment days, dosing was at 14:30-15:30 h (approximately 2 hours before lights off).
The Zucker obese and lean controls were orally treated with vehicle (10 mL/kg dose volume; 0.5% Pluronic F68 and 0.5% PVP K29/32 in water) on each weekday. Both Compound 2 (1.5 mg/kg and 3 mg/kg) groups were orally treated on each weekday (10 mL/kg dose volume; 0.5% Pluronic F68 and 0.5% PVP K29/32 in water). Prior to the treatment phase, 4 days baseline data were collected. The treatment phase was for 16 days and a washout phase of 6 days was also included.

[1] = Pharmacokinetics (plasma AUC) in mice; format: in vivo; details: mouse, 10 mg/kg po
Procedure: Blood was collected from mice (N=3) to contribute to the total of 10 time points (pre-dose, 5 min, 15 min, 30 min, 1 hour, 2 hours, 4 hours, 8 hours, 12 hours and 24 hours post dose). Mice were bled on a rotating basis, each mouse contributing 3 time points to the blood collection. At the designated time points, animals were anaesthetized under isoflurane, and approximately 110 μL of blood per time point was collected via retro-orbital puncture into pre-cooled K2EDTA (anti-coagulant) tubes. Blood samples were put on wet ice and centrifuged (2000 g, 5 min at 4° C.) to obtain plasma within 30 minutes of sample collection. All samples were stored frozen at approximately −80° C. until analysis. Prior to analysis, samples were mixed with internal standard (dexamethasone) in acetonitrile, vortexed, centrifuged, and supernatant was injected for analysis. Concentration of compounds in plasma was determined using LC-MS-MS instrumentation (API 4000, Triple Quadruple with electrospray ionization; Acuity Ultra Performance Liquid Chromatography column C18, with MeOH and formic acid as organic solvents). PK parameters including but not limited to Tmax, Cmax, t1/2, AUClast, AUCinf were calculated using WinNonlin Professional 6.2 software package, non-compartmental pharmacokinetic model NCA200.

[2] = MTT Cell Proliferation Assay (CellTiter 96 AQueous One Solution, MTS); format: cell-based; details: human; 72 h treatment; cell line not given; read-out: Cytotoxicity [IC50]
Source text: The CellTiter 96® AQueous One Solution cell proliferation assay (Promega) was used on MM1.S, Jurkat and HCT-116 cells to study the cytotoxic and cytostatic properties of the compounds. The assay is based on the cleavage of the tetrazolium salt, MTS, in the presence of an electron-coupling reagent PES (phenazine ethosulfate). The MTS tetrazolium compound is bioreduced by cells into a colored formazan product that is soluble in tissue culture medium. This conversion is presumably accomplished by NADPH or NADH produced by dehydrogenase enzymes in metabolically active cells. Assays are performed by adding a small amount of the CellTiter 96® AQueous One solution reagent directly to culture wells, incubating for 1-4 hours and then recording the absorbance at 490 nm with a 96-well plate reader. […] The cells were seeded at 5×10^3 to 1.5×10^4 cells (depending on cell type) in each well of 96-well plate in 100 μL of fresh culture medium and adherent cells were allowed to attach for overnight. The stock solutions of the compounds were diluted in cell culture medium to obtain eight concentrations of each drug, ranging from 1 nM to 30 μM and DMSO at less than 1% v/v was used as a negative control. After 72 h of treatment 20 μl of CellTiter 96® AQueous reagent was added into each well of the 96-well assay plates and the plate was incubate at 37° C. for 1-4 hours in a humidified, 5% CO2 atmosphere. Then the absorbance of each well was recorded at 490 nm by using a 96-well plate reader. In most cases the assay was performed in triplicates and the results were presented as half maximal inhibitory concentration (IC50) described below. Optical density versus compound concentration was plotted and analyzed using non linear regression equations (Excel Fit) and the IC50 for each compound was calculated.

[3] = Brain to plasma ratio (B:P) in mice; format: in vivo; details: mouse, brain and plasma, 10 mg/kg po, 2 hours post-dose
Procedure: Brain tissue following collection was rinsed with cold saline, dried on filter paper, weighed and snap-frozen by placing on dry ice. All samples were stored frozen at approximately −80° C. until analysis. […] Plasma samples were treated with the identical method (except homogenization step) and concentration of compound in either matrix was calculated based on the generated standard curves.

A549 xenograft tumors = test: A549 lung carcinoma xenograft model; format: in vivo, CB-17 SCID mice
Procedure: The A549 cell line was derived from explant culture of alveolar carcinoma tissue from a person. The cells were grown in Ham's F12-K tissue culture media with 10% fetal calf serum and 1% penicillin/streptomycin. Cells were routinely trypsinized and passaged 1:10. Thirty-two (32) female CB-17 SCID mice (Charles River Labs strain code 236), aged 5 to 6 weeks were used with a mean pre-treatment body weight of 16.3 grams. Mice were divided into four (4) groups of eight (8) prior to the initiation of treatment based on tumor volume. On the day of implantation, cells were washed in PBS, trypsinized and resuspended in complete media to a density of 2×10^7 cells/mL prior to being mixed with an equal volume of Matrigel. This mixture was then inoculated subcutaneously into mice in a volume of 0.1 mL using a 23 G needle.
Animal weights and condition were recorded daily, and tumors were measured on Mondays, Wednesdays and Fridays with micro-calipers, and tumor volume was calculated as (length×width×width)/2.
Animals with weight loss of more than 20% of their starting weight were euthanized. Mice with weight loss of more than 15% of their starting weight were not treated again until weight loss recovered to less than 5% of their starting weight. Any animals with a tumor volume of more than 1500 mm^3 were euthanized.
Dosing solutions were prepared fresh on each day of dosing. Compound 2 was supplied as a lyophilized powder containing 69.61% Compound 2 with the balance made up of Pluronic F-68 and PVP K29/32. This was prepared by dissolving the lyophilized powder in sterile water. Cisplatin was dissolved at 5 mg/mL in DMSO and diluted 1:10 in sterile water for injection. All test articles were administered in a volume of 0.1 mL/10 g body weight.
Statistical differences between treatment groups were determined using Mann-Whitney Rank Sum or ANOVA tests with a critical value of 0.05.

## O=C(/C=C\n1cnc(-c2cc(C(F)(F)F)cc(C(F)(F)F)c2)n1)NNC(=O)CN1CCOCC1 [Compound 2, (Z)-3-(3-(3,5-bis(trifluoromethyl)phenyl)-1H-1,2,4-triazol-1-yl)-N′-(2-morpholinoacetyl)acrylohydrazide]
Obese Zucker rats; 3 mg/kg oral
  body weight gain versus Zucker vehicle group: lower weight gain in comparison to the Zucker control group
Obese Zucker rats; 1.5-3 mg/kg oral each weekday, 16 day treatment period
  daily food intake and body weight compared to Zucker control group: dose-related decrease in daily food intake and body weight; also recorded: dose dependent decrease in daily food effect
[1]
  AUC(0-inf): 28900 ng·h/mL
[2]
  IC50 at 72 h: < 1 µM
[3]
  Kp at 2 h: 0.16
A549 xenograft tumors; Compound 2 10 mg/kg PO, p=0.0005, 10 mg/kg
  tumor volume AUC compared to vehicle control (one-way ANOVA): statistically significant difference
A549 xenograft tumors; Compound 2 orally, 5 and 10 mg/kg
  antitumor effect: had an antitumor effect at both 5 mg/kg and 10 mg/kg doses in a dose dependent manner

## CC(C)(C)C(=O)NNC(=O)/C=C\n1cnc(-c2cc(C(F)(F)F)cc(C(F)(F)F)c2)n1 [Compound 1, (Z)-3-(3-(3,5-bis(trifluoromethyl)phenyl)-1H-1,2,4-triazol-1-yl)-N′-pivaloylacrylohydrazide]
[1]
  AUC(0-inf): 33100 ng·h/mL
[2]
  IC50 at 72 h: < 1 µM
[3]
  Kp at 2 h: 2.25
